# Laboratory results from patent US20190208782A1, “PROCESSING COMPOSITION FOR C[…] WEEDS” (Arch Chemicals, Inc., priority 2018, published 2019).
# Columns and labels:
# Format in all cases: in vivo
# [1] = system: Elodea (Elodea canadensis); experiment: Native plant selectivity screening in aquaria, elodea (Example 6); details: static exposure; for Elodea biomass vs untreated reference plants: four WAT
# Procedure: Materials and Methods: The study was conducted in an indoor aquaria facility. Elodea (Elodea canadensis) was obtained from cultures. Two apical tips approximately 10 cm long were planted into each of 48, plastic containers (16 oz. plastic cups). The containers were filled with potting soil and amended with 2 g/L Osmocote® fertilizer 19-6-12. A layer of sand was placed on top of the sediment in each container to prevent sediment re-suspension in the aquaria. Two containers of potted elodea were placed into each of 24 aquaria measuring 11.5 in×11.5 in×24 in. Additionally, sago pondweed (Stuckenia pectinata) tubers were obtained. The tubers were floated in shallow containers filled with water until new sprouts began to grow.
# Once sprouted, two tubers were planted into 16 oz containers in a similar fashion as elodea. Two containers of potted sago pondweed were placed into each of the 24 aquaria, so that each aquarium had 4 potted plants (2 pots of each species). Each aquarium was filled to a volume of 45 L and plants allowed to grow approximately 3-4 weeks prior to herbicide treatments or until plants were at or near the water surface. Supplemental lighting was provided using Agrobrite growth lamps on a 12:12 light:dark cycle. After the plants reached the desired level of growth, a liquid formulation of fluroxypyr ester was applied as a concentrated aqueous solution at the concentrations outlined in Table 9. An untreated reference was also included for comparison purposes. All herbicide applications were made using a static exposure and replicated 3 times. […] Water was added to the aquaria as needed to maintain the desired 45 L volume of water.
# At four weeks after treatment (WAT), plants were, harvested, sorted to aboveground biomass, dried in a forced air oven at 50 C for at least 48 h, and weighed for biomass determination (g/DW/aquaria). Differences between treatments were analyzed using an ANOVA, and if treatment differences were detected; means were separated using a Tukey's All-Pairwise comparison test. All analyses were conducted at a p≤0.05 significance level. Additionally, regression models were fit to elodea biomass data in order to estimate the EC50 concentration under the current experimental design.
# Eurasian watermilfoil [2] = experiment: Fluroxypyr potassium salt formulations vs ester on Eurasian watermilfoil under mesocosm conditions (Example 4); details: 200 ug/L, 24 h exposure, 4 WAT
# Procedure: Eurasian watermilfoil was obtained from cultures. Two apical tips approximately 15 cm long were planted into each of 204, plastic containers (940 mL). The containers were filled with potting soil and amended with 2 g/L/soil Osmocote® fertilizer 19-6-12. Four containers of potted Eurasian watermilfoil were placed into each of 51 mesocosm tanks. Tanks were filled to a volume of 257 L and plants allowed to grow approximately 2-3 weeks prior to herbicide treatments, or until plants were at or near the water surface. Pre-treatment biomass was harvested from three tanks set up with pots for this purpose. Biomass was harvested by collecting aboveground biomass of plants from all of the pots in each of the pretreatment tanks. Plant material was placed into individually labeled paper bags, dried in a force air oven at 50 C for at least 48 h, and then weighed to assess biomass,
# After pre-treatment data collection, liquid herbicides were applied as a concentrated aqueous formulation using the rates and products outlined in Table 6. […]
# Four weeks after treatment (WAT), living plants were, harvested, sorted to aboveground biomass (if any), dried in a forced air oven at 50 C for at least 48 h, and weighed for biomass determination. Differences between treatments were analyzed using ANOVA with treatment means separated using a Fisher's Protected LSD test at a p≤0.05 significance level.
# Eurasian watermilfoil [3] = experiment: Fluroxypyr potassium salt vs ester formulation on Eurasian watermilfoil in small scale aquaria (Example 3); details: 24 h exposure, 4 WAT
# Procedure: Materials and Methods: Eurasian watermilfoil was obtained from cultures. Two apical tips approximately 10 cm long were planted into each of 96, plastic containers (473 mL). The containers were filled with potting soil and amended with 2 g/L/soil Osmocote® fertilizer 19-6-12. A layer of sand was placed on top of the sediment in each container to prevent sediment re-suspension in the aquaria. Four containers of potted Eurasian watermilfoil were placed into each of 24 aquaria. Each aquaria was filled to a volume of 45 L and plants allowed to grow approximately 2-3 weeks prior to herbicide treatments or until plants were at or near the water surface. Pre-treatment biomass was harvested from extra aquaria set up with pots for this purpose. Biomass was harvested by cutting aboveground biomass of plants at the soil surface in the three pretreatment aquaria. Harvested plant material was placed into individually labeled paper bags, dried in a force air oven at 50 C for at least 48 h, and then weighed to assess biomass. […]
# Each week, aquaria were rated for percent control on a 0-100% scale (0%=no control; 100% complete plant mortality). […] Differences between treatments were analyzed using ANOVA and means separated using a Fisher's Protected LSD test at a p≤0.05 significance level.
compound,measurement,setting,value
"CCCCCCC(C)OC(=O)COc1nc(F)c(Cl)c(N)c1Cl (stereo not shown) [Fluroxypyr ester, [(4-amino-3,5-dichloro-6-fluoro-2-pyridinyl)oxy]acetic acid, 1-methylheptyl ester]",Elodea biomass vs untreated reference plants,[1]; 400 ug/L or higher,reduced
same,Elodea biomass vs untreated reference plants,"[1]; 50, 100, and 200 ug/L",similar
same,EC50,"[1]; Elodea canadensis, 4 WAT, aquaria, read-out: EC50 for elodea (biomass, regression model)",0.356 µg/mL
same,herbicide symptoms on elodea,"[1]; within one WAT, transient in the lower concentration treatments",epinastic twisting and bending
same,Eurasian watermilfoil biomass reduction,Eurasian watermilfoil [2],98%
same,Eurasian watermilfoil biomass reduction,Eurasian watermilfoil [3]; 200 ug/L,100%
same,Eurasian watermilfoil biomass reduction,Eurasian watermilfoil [3]; 400 ug/L,100%
